Results on 15 molecules are retold here after ChEMBL document CHEMBL1121629, “1-(Aminoalkyl)-6-aryl-4-H-s-triazolo[4,3-a][1,4]benzodiazepines with antianxiety and antidepressant activity” (1980).

Each structure is given as a SMILES string.

Holding throughout (assay type): functional
The species entered for assay [1] is Mus musculus. Kind of assay: Tested for antagonism of bicuculline-induced tonic-extensor convulsions (B) in mice.
Assay [2] is filed under the species Mus musculus. The experiment in a line: Tested for antagonism of nicotine-induced death (D) in mice.
For assay [3], the species on record is Mus musculus. Kind of assay: Tested for antagonism of nicotine-induced tonic extensor convulsions (TE) in mice.
The species entered for assay [4] is Mus musculus. The experiment in a line: Tested for antagonism of pentylenetetrazole-induced clonic convulsions (P) in mice.
Assay [5] is filed under the species Mus musculus. The experiment in a line: Tested for potentiation of gamma-butyrolactone induced sleep (gamma-B) in mice.
For assay [6], the species on record is Mus musculus. Kind of assay: Tested for potentiation of yohimbine toxicity in aggregated mice(Y).
The species named for assay [7] is Mus musculus. Kind of assay: Prolongation of hypoxic survival time (HS) in mice.
For assay [8], the species on record is Mus musculus. The experiment in a line: Tested for stereotyped gnawing and licking behavior of mice pretreated with apomorphine (AG).
Assay [9] is filed under the species Mus musculus. The experiment in a line: Tested for antagonism of oxotremorine hypothermia (OX) in mice.

On to `CCN(CC)CCCc1nnc2n1-c1ccc(Cl)cc1C(c1ccccc1)=NC2`, for which the ED50 in the assay filed under Mus musculus [1] was greater than 100 mg/kg; in the assay listed under Mus musculus [2], 13 mg/kg; in the assay filed under Mus musculus [3], 11 mg/kg; in the assay listed under Mus musculus [4] it was greater than 100 mg/kg; in the assay listed under Mus musculus [5] it was greater than 100 mg/kg; in the assay filed under Mus musculus [6] it was 56 mg/kg. Besides, the results for the ED50 in the assay filed under Mus musculus [7], in the assay listed under Mus musculus [8] and in the assay filed under Mus musculus [9] were greater than 50 mg/kg, 100 mg/kg and 31.6 mg/kg, respectively.
For the molecule `CN(C)CCc1nnc2n1-c1ccccc1C(c1ccccc1)=NC2`, the ED50 in the assay filed under Mus musculus [1] was greater than 50 mg/kg; in the assay listed under Mus musculus [4], greater than 50 mg/kg; in the assay listed under Mus musculus [5] it was 30 mg/kg; in the assay listed under Mus musculus [6], 40 mg/kg; in the assay listed under Mus musculus [7] it was greater than 50 mg/kg; in the assay filed under Mus musculus [8], 20 mg/kg. Also, the ED50 in the assay filed under Mus musculus [9] turned out to be 10 mg/kg.
For the molecule `C#CCN(C)Cc1nnc2n1-c1ccc(Cl)cc1C(c1ccccc1)=NC2`, the ED50 was determined as 0.5 mg/kg in the assay filed under Mus musculus [1]; 0.14 mg/kg in the assay listed under Mus musculus [2]; 0.14 mg/kg in the assay listed under Mus musculus [3]; 0.3 mg/kg in the assay filed under Mus musculus [4]; 0.3 mg/kg in the assay listed under Mus musculus [5]; 18 mg/kg in the assay listed under Mus musculus [6]. Further, the ED50 in the assay listed under Mus musculus [7] was greater than 50 mg/kg; in the assay listed under Mus musculus [8], 4.4 mg/kg; in the assay listed under Mus musculus [9], 30 mg/kg.
In the case of `CN(C)Cc1nnc2n1-c1ccc(Br)cc1C(c1ccccn1)=NC2`, the ED50 in the assay listed under Mus musculus [1] stood at 1.3 mg/kg; in the assay filed under Mus musculus [2], 1 mg/kg; in the assay filed under Mus musculus [3] it was 1 mg/kg; in the assay listed under Mus musculus [4], 1.9 mg/kg; in the assay listed under Mus musculus [5], 1.3 mg/kg; in the assay filed under Mus musculus [6], 29.7 mg/kg. Also, the values for the ED50 in the assay filed under Mus musculus [7], in the assay filed under Mus musculus [8] and in the assay filed under Mus musculus [9] were 30 mg/kg, greater than 50 mg/kg and 12.5 mg/kg, respectively.
Turning to `Clc1ccc2c(c1)C(c1ccccc1)=NCc1nnc(CCCN3CCN(c4ccccc4)CC3)n1-2`, the ED50 was greater than 50 mg/kg in the assay listed under Mus musculus [1]; 79 mg/kg in the assay listed under Mus musculus [2]; 89 mg/kg in the assay filed under Mus musculus [3]; greater than 50 mg/kg in the assay listed under Mus musculus [4]; 10 mg/kg in the assay filed under Mus musculus [5]; greater than 50 mg/kg in the assay listed under Mus musculus [7].
With `CN(C)CCCN1c2ccccc2CCc2ccccc21` [IMIPRAMINE], the ED50 in the assay listed under Mus musculus [1] was 21 mg/kg; in the assay listed under Mus musculus [2], 7 mg/kg; in the assay listed under Mus musculus [3] it was 7 mg/kg; in the assay listed under Mus musculus [7], greater than 50 mg/kg; in the assay listed under Mus musculus [8] it was 0.9 mg/kg; in the assay filed under Mus musculus [9] it was 1.3 mg/kg.
On to `CN(C)CCc1nnc2n1-c1ccc(Br)cc1C(c1ccccn1)=NC2`, for which the ED50 in the assay listed under Mus musculus [1] is greater than 50 mg/kg; in the assay listed under Mus musculus [4], 20 mg/kg; in the assay listed under Mus musculus [5], 10 mg/kg; in the assay listed under Mus musculus [6] it was 4 mg/kg; in the assay filed under Mus musculus [7], greater than 50 mg/kg; in the assay listed under Mus musculus [8], 9 mg/kg. The same molecule yielded an ED50 in the assay filed under Mus musculus [9] of 4 mg/kg.
In the case of `CN(C)OCc1nnc2n1-c1ccc(Cl)cc1C(c1ccccc1)=NC2`, the ED50 in the assay filed under Mus musculus [1] is 0.2 mg/kg; in the assay filed under Mus musculus [4], 0.2 mg/kg; in the assay listed under Mus musculus [5], 0.1 mg/kg; in the assay filed under Mus musculus [6], greater than 50 mg/kg; in the assay filed under Mus musculus [7] it was greater than 0.2 mg/kg; in the assay filed under Mus musculus [8] it was greater than 50 mg/kg. Also, the ED50 in the assay listed under Mus musculus [9] is greater than 50 mg/kg.
In the case of `CN(C)Cc1nnc2cc(-c3ccccc3)c3cc(Cl)ccc3n12`, the ED50 in the assay listed under Mus musculus [1] was greater than 50 mg/kg; in the assay filed under Mus musculus [2], 89 mg/kg; in the assay filed under Mus musculus [3], 89 mg/kg; in the assay filed under Mus musculus [4], greater than 50 mg/kg; in the assay listed under Mus musculus [5], greater than 50 mg/kg; in the assay filed under Mus musculus [8], greater than 50 mg/kg. This molecule registered an ED50 in the assay filed under Mus musculus [9] greater than 50 mg/kg.
Consider `C[N+](C)([O-])Cc1nnc2n1-c1ccc(Cl)cc1C(c1ccccc1)=NC2`, for which the ED50 in the assay filed under Mus musculus [1] was 0.8 mg/kg; in the assay listed under Mus musculus [4], 0.3 mg/kg; in the assay listed under Mus musculus [5], 0.6 mg/kg; in the assay listed under Mus musculus [6], greater than 50 mg/kg; in the assay filed under Mus musculus [7], 5.3 mg/kg; in the assay filed under Mus musculus [8], greater than 50 mg/kg. This molecule also displayed an ED50 in the assay filed under Mus musculus [9] of 5.3 mg/kg.
With `CN(C)Cc1nnc2n1-c1ccccc1C(c1ccccc1Cl)=NC2`, the ED50 is 17.8 mg/kg in the assay listed under Mus musculus [1]; 0.13 mg/kg in the assay filed under Mus musculus [3]; 10 mg/kg in the assay listed under Mus musculus [4]; greater than 10 mg/kg in the assay filed under Mus musculus [5]; greater than 30 mg/kg in the assay listed under Mus musculus [6]; 0.5 mg/kg in the assay filed under Mus musculus [7]. Further, the ED50 in the assay listed under Mus musculus [8] and in the assay listed under Mus musculus [9] was greater than 30 mg/kg each time.
For the molecule `CC(N)Cc1nnc2n1-c1ccccc1C(c1ccccc1)=NC2` (stereo not drawn), the ED50 is greater than 50 mg/kg in the assay listed under Mus musculus [1]; greater than 50 mg/kg in the assay listed under Mus musculus [4]; greater than 50 mg/kg in the assay filed under Mus musculus [5]; 40 mg/kg in the assay filed under Mus musculus [6]; greater than 50 mg/kg in the assay listed under Mus musculus [7]; greater than 50 mg/kg in the assay listed under Mus musculus [8]. Besides, the ED50 in the assay filed under Mus musculus [9] was greater than 50 mg/kg.
In the case of `NCCc1nnc2n1-c1ccccc1C(c1ccccc1)=NC2`, the ED50 in the assay filed under Mus musculus [1] was greater than 50 mg/kg; in the assay listed under Mus musculus [4], greater than 50 mg/kg; in the assay filed under Mus musculus [5], greater than 50 mg/kg; in the assay listed under Mus musculus [6], 30 mg/kg; in the assay listed under Mus musculus [7], greater than 50 mg/kg; in the assay listed under Mus musculus [8], 30 mg/kg. Moreover, the 50% effect level in the assay listed under Mus musculus [9] (ED50) was put at a dose of 40 mg/kg.
As for `CN(C)Cc1nnc2n1-c1ccc(Cl)cc1C(c1ccccc1)=NC2` [ADINAZOLAM], the ED50 in the assay filed under Mus musculus [1] was 0.7 mg/kg; in the assay filed under Mus musculus [2], 0.13 mg/kg; in the assay listed under Mus musculus [4] it was 0.9 mg/kg; in the assay filed under Mus musculus [5] it was 1.6 mg/kg; in the assay filed under Mus musculus [7] it was 5 mg/kg.
For `CC(N)Cc1nnc2n1-c1ccc(Br)cc1C(c1ccccn1)=NC2` (stereo not drawn), the ED50 in the assay filed under Mus musculus [1] is greater than 50 mg/kg; in the assay listed under Mus musculus [4], greater than 50 mg/kg; in the assay filed under Mus musculus [5], 40 mg/kg; in the assay listed under Mus musculus [6] it was 7 mg/kg; in the assay filed under Mus musculus [7] it was greater than 50 mg/kg; in the assay filed under Mus musculus [8], 20 mg/kg. The same molecule had an ED50 in the assay listed under Mus musculus [9] greater than 50 mg/kg.

Usually ED50 stands for the midpoint of the dose-response relation.
